Experimental data reported in patent US20210024499A1, “OXIDIZED BIS(3-INDOLYL)METHANES AND USES THEREOF” (Sanford Burnam Prebys Medical Discovery Institute, priority 2018, published 2021).

Columns and labels:
Bcl-2−/−HeLa cells = assay: Annexin V/PI staining, Bcl-2 knockout HeLa; assay type: cell-based
Method: Knocking out Nur77 and Bcl-2 from HeLa cells employed the CRISPR/Cas9 system. gRNA targeting sequence of Nur77 (5′-[…]-3′) and Bcl-2 (5′-[…]-3′) was cloned into gRNA cloning vector Px330 (Addgene, 71707) and confirmed by sequencing. To screen for cells lacking Nur77 or Bcl-2, HeLa cells were transfected with control vector and gRNA expression vectors, followed by G418 selection (0.5mg/m1). Single colonies were subjected to Western blotting using anti-Nur77 and anti-Bcl-2 antibody to select knockout cells.
The apoptotic effect of Compound lwas also evaluated in Bcl-2 genome knockout HeLa cells generated by CRISPR/Cas9 technology (Example A-5).

pBind-RXRa-LBD and Nur77 = assay: Mammalian one hybrid assay, Gal4-RXRa-LBD with Nur77; assay type: cell-based; conditions: cotransfection of pBind-RXRa-LBD and Nur77, Dual-Luciferase (FIG. 10)
Method: HEK293T cells were co-transfected with pG5 Luciferase reporter together with the plasmid encoding RXRa-LBD fused with the Gal4 DNA-binding domain and other expression plasmids. After transfection, cells were treated with DMSO or a test compound, and assayed by using the Dual-Luciferase Reporter Assay System (Promega). Transfection efficiency was normalized to Renilla luciferase activity.
To exclude the possibility that Compound 1 acted on RXRa, Glu453 and Glu456 in the RXRa activation function 2 (AF2) region were substituted with Ala and the resulting mutant, RXRa-LBD/E453,6A, was used.

HCT116 cells [1] = assay: PARP cleavage assay (Western blotting), HCT116; assay type: cell-based; conditions: 6 hours
Description: (§1) Compound 1a had no effect under the same conditions (FIG. 1A). […] Compound 1a, 28a, 47a, 48a, 73a, 39a, 70a, 103a, 89a and 88a had no effect under the same conditions (FIG. 3B-C).

HCT116 cells [2] = assay: DAPI staining for apoptosis, HCT116; assay type: cell-based; conditions: 0.5 μM, 6 hours, counted in 200 cells
Method: In HCT116 cells, about 80% apoptotic cells were detected when cells were treated with Compound 1 compared to less than 5% when cells were not treated with Compound 1. Apoptotic cells were counted in 200 cells.

[3] = tested on: MDA-MB-231 breast cancer cells; assay: Mitochondrial membrane potential (JC-1), MDA-MB-231; assay type: cell-based; conditions: MDA-MB-231 cells, 1 μM, 6 h
Method: (§2) Loss of mitochondrial membrane potential (Avm) represents one of the hallmarks of apoptosis. A JC-1 probe was employed to measure mitochondrial depolarization in cancer cells. MDA-MB-231 breast cancer cells were treated with different concentration of test compounds for 6 hours. JC-1 staining solution (5 μg/ml) was added at 37° C. for 20 min. After washing with PBS twice, mitochondrial membrane potentials were monitored by determining the relative amounts of dual emission from a multiple fluorescence reader. The fluorescence in cells was quantitatively analyzed by flow cytometry. Mitochondrial depolarization is depicted by an increase in the green/red fluorescence intensity ratio. ROS were monitored with the oxiadtion-senstive fluorescent probe 2′7′-dichlorodihydroflurescenin diacetate (DCF-DA).
In healthy cells with high Δψwm, JC-1 forms complexes with intense red fluorescence. However, in cells with low Δψm, JC-1 remains in the monomeric form with green fluorescence. Mitochondrial depolarization is depicted by an increase in the green/red fluorescence intensity ratio.

Nur77−/− HeLa cells = assay: Mitochondrial ROS, Nur77 knockout HeLa; assay type: cell-based
Method: as §2
Furthermore, Nur77^−/−HeLa cells were more resistant than the parental HeLa cells to Compound 1 in its induction of the mitochondrial membrane potential loss measured by JC1 staining and in the release of mitochondrial ROS (as performed in Example A-12).

[4] = tested on: non-transfected HEK293T cells; assay: Apoptosis in non-transfected HEK293T cells (confocal microscopy); assay type: cell-based
Description: (§3) The ligand-binding domain (LBD) of Nur77, Nur77-LBD, was transfected into HEK293T cells. Transfection of Nur77-LBD enhanced the apoptotic effect of Compound 1, with 36% of the transfected HEK293T cells undergoing apoptosis, while 4.5% of the non-transfected cells were apoptotic, as measured by confocal microscopy.

SW620 xenograft tumor = assay: SW620 xenograft nude mouse study; assay type: in vivo, BALB/c nude mice
Method: Male BALB/c nude mice (6 weeks old) were subcutaneously injected with log growth-phase of SW620 cells (1×10^6 cells in 0.1 ml PBS). Mice were treated orally after 7 days of transplantation with Compound 1 once a day. Body weight and tumor size were measured every 3 days. Tumors were measured and weighted. Tissues isolated from the nude mice were fixed with 4% paraformaldehyde. TdT-mediated dUTP nick end labeling assay was performed according to the manufacturer's instructions (In situ Cell Death Detection Kit; Roche).

MDA-MB-231 cells = assay: Caspase 3 cleavage assay (Western blotting); assay type: cell-based; conditions: 6 hours, Western blotting (FIG. 2)
Nur77 = biological target: T1, Nur77 (Homo sapiens, UniProt P22736); assay: Immunostaining of Nur77 localization, HCT116; assay type: cell-based; conditions: HCT116 cells, 0.5 μM, 2 hours
T1 construct: expressed in transfected cells
T1 sequence (P22736 whole entry): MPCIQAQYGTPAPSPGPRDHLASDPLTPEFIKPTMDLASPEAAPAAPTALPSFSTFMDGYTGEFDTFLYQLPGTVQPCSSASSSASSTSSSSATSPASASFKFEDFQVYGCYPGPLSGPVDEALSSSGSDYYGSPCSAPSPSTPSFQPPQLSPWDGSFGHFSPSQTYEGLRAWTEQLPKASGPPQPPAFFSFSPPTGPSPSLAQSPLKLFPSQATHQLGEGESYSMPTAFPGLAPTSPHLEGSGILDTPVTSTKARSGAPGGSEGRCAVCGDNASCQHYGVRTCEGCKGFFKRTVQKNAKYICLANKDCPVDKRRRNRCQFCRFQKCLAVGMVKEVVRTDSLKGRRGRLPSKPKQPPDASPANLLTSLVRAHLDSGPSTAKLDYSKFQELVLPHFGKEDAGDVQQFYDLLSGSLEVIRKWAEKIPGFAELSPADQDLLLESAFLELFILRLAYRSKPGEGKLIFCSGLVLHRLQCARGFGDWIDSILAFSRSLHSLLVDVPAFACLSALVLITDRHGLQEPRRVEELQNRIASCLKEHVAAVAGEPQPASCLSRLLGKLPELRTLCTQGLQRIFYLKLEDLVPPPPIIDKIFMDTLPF
Method: Cells were fixed in 3.7% paraformaldehyde. For mitochondrial staining, cells were incubated with anti-Hsp60 goat immunoglobulin G (IgG) (Santa Cruz Biotechnology, Santa Cruz, Calif.), followed by anti-goat IgG conjugated with Cy3. The nuclei were visualized by DAPI staining. Fluorescent images were collected and analyzed by using a fluorescence microscopy or MRC-1024 MP laser-scanning confocal microscope (Bio-Rad, Hercules, Calif.).
To confirm the effect of Compound 1 on Nur77 cytoplasmic localization, HEK293T cells were transfected with GFP-Nur77 and subsequently treated with 0.5 μM Compound 1.

[5] = tested on: HEK293T cells transfected with Nur77-LBD; assay: Apoptosis in HEK293T cells transfected with Nur77-LBD (confocal microscopy); assay type: cell-based
Description: as §3

Bcl-2−/−MEF cells = assay: DAPI staining for apoptosis, Bcl-2-/- MEFs; assay type: cell-based, mouse; conditions: 0.5 μM
Description: The apoptotic effect of Compound 1 was also examined in mouse embryonic fibroblast (MEF) and MEF lacking Bcl-2 (Bcl-2^−/−MEF). […] Apoptotic cells were counted in 200 cells.

HeLa cells = assay: PARP cleavage assay (Western blotting), HeLa; assay type: cell-based; conditions: 6 hours
Description: as §1

SMILES: FC(F)(F)c1ccc([C+](c2c[nH]c3ccccc23)c2c[nH]c3ccccc23)cc1 [Compound 1, Bis(1H-indol-3-yl)(4-(trifluoromethyl)phenyl)methylium methanesulfonate]
- apoptotic effect (Annexin V/PI staining) (Bcl-2−/−HeLa cells): 7.95%
- reporter transcriptional activity (pBind-RXRa-LBD and Nur77): dose dependently induced the reporter activity
- PARP cleavage (HCT116 cells [1]; 0.5 μM, Western blotting): effectively induced PARP cleavage
- concentration inducing PARP cleavage (dose dependent study) (HCT116 cells [1]): submicromolar concentrations
- apoptotic cells (DAPI staining) (HCT116 cells [2]): about 80%
- JC-1 green to red ratio (control 100%) [3]: 345%
- increase in mito-ROS relative to regular HeLa cells (Nur77−/− HeLa cells): smaller increase
- apoptotic cells [4]: 4.5%
- apoptosis in tumor specimens (TUNEL assay) (SW620 xenograft tumor; SW620 xenograft, compared to control tumor): extensive apoptosis
- growth of SW620 xenograft tumor (SW620 xenograft tumor; nude mice, oral, once a day (FIGS. 6A-6B)): inhibited the growth of SW620 xenograft tumor in a dose and time-dependent manner
- caspase 3 cleavage (MDA-MB-231 cells): dose dependent induction of caspase 3 cleavage
- Nur77 subcellular localization (immunostaining) (Nur77): predominantly cytoplasmic
- cells undergoing apoptosis [5]: 36%
- cells with chromatin condensation and nuclear fragmentation (DAPI) (Bcl-2−/−MEF cells): 14%
- concentration inducing PARP cleavage (dose dependent study) (HeLa cells): submicromolar concentrations
